In test [1] the test system is human mesenchymal stem cells (hMSCs). Put plainly: chondrogenic nodule formation by hMSCs (high throughput screen). Conditions: for EC50: Homo sapiens, Mesenchymal stem cells, first value of the cell (before the slash), read-out: CHONDROGENIC μM EC50. It is filed as cell-based. On the procedure:
The primary screening assay was based upon the development of chondrogenic nodules. Chondrocytes can grow in monolayer in vitro, but to more closely mimic their native environment in the joint, the cells are routinely cultured in non-adherent conditions such as in pellet cultures or alginate bead suspensions.
In the actual screen of a library of 22,000 structurally diverse heterocycles, 10^4 primary hMSCs were plated in 384 well plates in serum free DMEM. The cells were treated with 5 μM of each compound and incubated for 4 days. […] To facilitate high throughput imaged-based detection, the chondrogenic nodules were stained with […]. The Nile Red stained nodules were quantified on an Acumen eX3 (high content imaging device) by excitation with a 488 laser for rapid detection of the nodules.
Primary hMSCs grown in a 96 well Greiner plates (50,000/well) were incubated for 4 days in the presence of the 5 uM of each DMSO or 100 nM of PRO1. On day 4, the cells were fixed with 4% formalin for 10 minutes, washed and stained with 1 μg/ml of Rhodamine B for 2 hours at room temperature.

In test [2] the test system is primary bovine chondrocytes. Put plainly: inhibition of cytokine-induced nitric oxide release (Greiss reaction). The class given is cell-based. Conditions: Bos taurus, Chondrocyte; second value of the cell (after the slash); TNFα and oncostatin M, 48 hours; read-out: NO INHIBTION μM IC50. An excerpt: In the screen, hMSCs were used as a surrogate to future targeting of the resident MSCs with the cartilage joint. It was in that setting upon which we identified PRO1. In a joint injury, the primary cell type a therapeutic would have contact with is the chondrocyte. Although cartilage or chondrocyte-targeted screening has not lead to the development of a successful drug modifying osteoarthritis drug (DMOAD) to date, it is believed that a stem cell-based therapeutic would protect and even repair the existing chondrocytes. Therefore, protection of the articular chondrocytes and cartilage from a mature bovine knee was assessed. PRO1 and its analogues were incubated with primary bovine chondrocytes or cartilage explants cultures grown in the presence of TNFα and oncostatin M to mimic the cytokine-induced damage that can occur during OA. In the presence of the cytokine cocktail, in vitro cultured primary chondrocytes released 4-5 fold more nitric oxide (NO) than the untreated chondrocytes (50 μM vs 10 μM) as measured by the Greiss reaction. In cells treated with the cytokine cocktail and PRO1, the small molecule could effectively block the release of NO by up to 70% FIG. 2C). Similarly, in ex vivo treated cartilage explants, cytokine-induced release of glycosaminoglycans (GAG) was reduced by up to 60% by PRO1 (FIG. 2D). Finally, hMSC were grown in pellet culture for 21 days.
(§1) Primary hMSCs were plated (10,000/well) in 384-well plates and cultured for 18 days. The cells were fixed with 4% formalin, permeabilized with triton (0.5%), digested with 0.5 mg/ml collagenase II to unwind the collagen fibrils, and then immunostained with an antibody recognizing type II collagen. DAPI (2 μg/ml) was added to visualize the nuclei. The chondrogenic nodules stained positive for type II collagen but lacked expression of type X collagen and osteocalcin, markers for chondrocyte hypertrophy and osteoblasts, respectively (not shown). 10,000 hMSCs (passages 3-5) were plated in Greiner 384-well low-bottom plates on day 1. The cells were allowed to adhere and stimulated for 48 hrs (days 2-3) with the indicated stimuli in MSC growth media (Millipore). The media was then removed and replaced with serum-free DMEM for an additional 16 days. This media was replenished on days 10 and 15 of the assay. Primary bovine chondrocytes were isolated from the articular surfaces from mature knees. After one week of culture, 8,500 cells were trypsinized and plated in Greiner 384-well white clear-bottom plates in growth media. […] 20 μl of the supernatant was mixed with 20 μl of the Greiss reagent and quantitated at 540 nm as described by the Promega kit instructions. Bovine cartilage explants (cut in circular explants in a 96 well plate) were cultured in the presence of 20 ng/ml TNFα and 10 ng/ml oncostatin M to induce GAG release for 72 hours (FIG. 2D). PRO1 was added at the indicated concentrations during the entire 72 hrs. […] Parafin sections were hydrated, incubated in low pH Antigen unmasking solution (Vector) at 90 C for 10 minutes, permeabilized with 0.1% collagenase II (only for the sections stained with type II collagen) for 10 minutes, blocked with CAS block for 10 minutes and then incubated with the primary antibody (type II collagen, aggrecan or Timp1) antibody (Abcam) overnight at 4 C. The antigens were visualized through standard ABC detection methods and developed with DAB. Representative of 3 sections stained/treatment group (independent experiments).

A further test relates to hMSCs. The test is described as follows: type II collagen expression in hMSC cultures (18 day assay). The class given is cell-based, human. Conditions: Homo sapiens. As to the method: The chondrogenic differentiation event was initiated quickly even though a fully differentiated chondrocyte phenotype cannot be assessed prior to 14 days in culture. In an 18 day assay, compound treatment was only required for the first 48 hrs and followed by removal and replacement of the media (in the absence of stimuli, FIG. 2B). The promotion of chondrogenic differentiation was not altered or enhanced upon longer treatment with the stimuli (data not shown).
as §1

Bounds are passed on as bounds.

A word on the EC50: it is the concentration needed to bring the measured effect to its halfway point. One may read the IC50 as the midpoint of a concentration-inhibition curve. In the case of `O=C(c1ccccc1)c1ccc(NC(=O)c2ccccc2C(=O)O)cc1`, the EC50 in test [1] was over 10 µM. Besides, the IC50 in test [2] is 2.5 µM. Taken in the same sequence, the figures for `CCCOC(=O)c1ccc(NC(=O)c2ccccc2C(=O)O)cc1` were over 10 µM and 0.624 µM.

`COC(=O)c1cc(C(=O)O)ccc1C(=O)Nc1ccc(C(=O)O)cc1`: the IC50 in test [2] is over 10 µM.

As to `O=C(O)c1ccccc1C(=O)Nc1ccc(S(=O)(=O)N2CCCCC2)cc1`, the IC50 in test [2] turned out to be 2.7 µM. Same read-out and setting: as for `O=C(Nc1ccc(Cc2ccccc2)cc1)c1cc(Cl)cc(Cl)c1C(=O)O`, the figure is over 10 µM; as for `C=COc1ccc(NC(=O)c2ccccc2C(=O)O)cc1`, over 10 µM; as for `C#CCOC(=O)c1ccccc1C(=O)Nc1ccc(Br)cc1`, over 10 µM. Still for that read-out and setting: as for `COC(=O)c1ccccc1C(=O)Nc1ccccc1`, the figure is over 10 µM; as for `O=C(Nc1ccccc1)c1ccccc1C(=O)OCc1ccc([N+](=O)[O-])cc1`, over 10 µM; as for `C=CCOC(=O)c1ccccc1C(=O)Nc1ccc(I)cc1`, over 10 µM. Same read-out and setting: next, `CC1COCCN1C(=O)c1ccc(NC(=O)c2ccccc2C(=O)O)cc1` (stereo not shown): 2.64 µM. As for `C=C(C)CS(=O)(=O)c1ccc(NC(=O)c2ccccc2C(=O)O)cc1`, the IC50 in test [2] came to 0.925 µM.

Consider `CCCCCOc1ccc(NC(=O)c2ccccc2C(=O)O)cc1`, for which, in test [2], the IC50 was over 10 µM. Consider `COC(=O)c1ccccc1C(=O)Nc1ccc(C#N)cc1`, for which the IC50 in test [2] was over 10 µM. Take `CCc1ccc(NC(=O)c2ccc(C(=O)O)cc2C(=O)O)cc1`: in test [2], the IC50 turned out to be 0.925 µM.

With `CC(C)(C)Oc1ccc(NC(=O)c2ccccc2C(=O)O)cc1`, the IC50 in test [2] is over 10 µM. Still for that read-out and setting: as for `O=C(O)c1cc(Cl)c(Cl)cc1C(=O)Nc1ccc(Cl)cc1`, the figure is over 10 µM; as for `COc1ccc(NC(=O)c2ccccc2C(=O)Oc2ccc(OC)cc2)cc1`, over 10 µM. The same measure, in the same setting: as for `O=C(O)c1cc([N+](=O)[O-])ccc1C(=O)Nc1ccc(-c2ccccc2)cc1`, the figure is over 10 µM. The same measure, in the same setting: next, `CC(=O)Nc1ccc(NC(=O)c2ccccc2C(=O)O)cc1`: over 10 µM. For the molecule `O=C(O)c1ccccc1C(=O)Nc1ccc(F)cc1`, in test [1], the EC50 is over 10 µM. Besides, the IC50 in test [2] is 0.0125 µM. Regarding `Cc1ccc2nc(-c3ccc(NC(=O)c4ccccc4C(=O)O)cc3)sc2c1`, in test [2], the IC50 was determined as 0.987 µM. As to `O=C(O)c1ccccc1C(=O)Nc1ccc(-c2csc(-c3ccccc3)n2)cc1`, the IC50 in test [2] was over 10 µM. For the molecule `O=C(O)c1ccc(NC(=O)c2ccccc2C(=O)O)c(C(=O)O)c1`, the IC50 in test [2] is over 10 µM. Same read-out and setting: as for `O=C(O)c1ccc(C(=O)Nc2ccc(Br)cc2)c(C(=O)O)c1`, the figure is over 10 µM.

For `O=C(O)c1ccc(C(=O)Nc2ccc(O)cc2)c(C(=O)O)c1`, in test [2], the IC50 is over 10 µM. Take `Cc1ccc(Oc2ccc(NC(=O)c3ccccc3C(=O)O)cc2)cc1`: in test [2], the IC50 was over 10 µM. Still for that read-out and setting: as for `O=C(O)c1ccccc1C(=O)Nc1ccc(Oc2ccc3ccccc3c2)cc1`, the figure is over 10 µM. With `COc1ccc(NC(=O)c2cc(Cl)c(Cl)cc2C(=O)O)cc1`, in test [2], the IC50 is over 10 µM. The same measure, in the same setting: as for `O=C(O)c1ccccc1C(=O)Nc1ccc(OC(F)F)cc1`, the figure is over 10 µM; as for `O=C(O)c1ccccc1C(=O)Nc1ccc([N+](=O)[O-])cc1`, over 10 µM. For `CCN(CC)c1ccc(NC(=O)c2ccccc2C(=O)O)cc1`, the IC50 in test [2] was 2.98 µM. On the same count and under the same terms, next, `O=C(O)c1ccccc1C(=O)Nc1ccc(S(=O)(=O)NCc2ccccc2)cc1`: over 10 µM; `O=C(O)c1ccccc1C(=O)Nc1ccc(Oc2ccccc2)cc1`: over 10 µM; `C#CCOC(=O)c1ccccc1C(=O)Nc1ccc(Cl)cc1`: over 10 µM. On the same count and under the same terms, as for `O=C(O)c1ccccc1C(=O)Nc1ccc(C(=O)N2CCOCC2)cc1`, the figure is over 10 µM; as for `CC(C)(C)c1ccc(NC(=O)c2cc(Cl)c(Cl)cc2C(=O)O)cc1`, over 10 µM; as for `CCOc1ccc(NC(=O)c2cccc(O)c2C(=O)O)cc1`, over 10 µM. In the case of `O=C(O)c1ccc(C(=O)Nc2ccc(I)cc2)c(C(=O)O)c1`, in test [2], the IC50 is over 10 µM. Turning to `O=C(O)c1ccccc1C(=O)Nc1ccc(CO)cc1` [AKT-CH2OH, 2-((4-(hydroxymethyl)phenyl)carbamoyl)benzoic acid], the EC50 in test [1] turned out to be 0.04 µM; in the test on hMSCs, 8.46 µM. Further, the IC50 in test [2] worked out at 0.27 µM.

On to `[N-]=[N+]=Nc1ccc(C(=O)NCCCNC(=O)c2ccccc2C(=O)NNC(=O)CCOCCC2SCC3NC(=O)NC32)c(O)c1` (stereo not shown) [AKT-azide], for which, in test [2], the IC50 came out at 0.12 µM. The same molecule yielded an EC50 in the test on hMSCs of 0.654 µM. For the molecule `COc1ccc(NC(=O)c2ccccc2C(=O)O)cc1` [Compound L2, 2-((4-methoxyphenyl)carbamoyl)benzoic acid], the EC50 (in test [1]; in the test with hMSCs) was over 10 µM each time.

For `O=C(O)c1ccccc1C(=O)Nc1ccccc1` [LK49], the EC50 in test [1] was found to be 5 µM. Also, the IC50 in test [2] is over 10 µM. As for `O=C(O)c1ccc(NC(=O)c2ccccc2C(=O)O)cc1` [LK53], the 50% effective concentration (EC50) in test [1] came to 0.005 µM. For the same molecule, the IC50 in test [2] was 0.146 µM. Taken in the same sequence, the figures for `COC(=O)c1ccccc1C(=O)Nc1ccc(-c2ccccc2)cc1` [LK55b, Methyl 2-([1,1′-biphenyl]-4-ylcarbamoyl)benzoate] were 0.124 µM and 0.234 µM. Taken in the same sequence, the figures for `O=C(O)c1ccccc1C(=O)Nc1ccc([N+](=O)[O-])cn1` [LK59, 2-((5-nitropyridin-2-yl)carbamoyl)benzoic acid] were 0.371 µM and 0.491 µM. Taken in the same sequence, the figures for `Cc1ccc(NC(=O)c2ccccc2C(=O)O)c(C(=O)O)c1` [LK60, 2-(2-carboxybenzamido)-5-methylbenzoic acid] were 0.014 µM and 1.25 µM.

On to `CN1C(=O)c2ccc(NC(=O)c3ccccc3C(=O)O)cc2C1=O` [LK61], for which the EC50 in test [1] stood at 0.052 µM. The IC50 in test [2] turned out to be 1.69 µM. Taken in the same sequence, the figures for `O=C(O)c1ccccc1C(=O)Nc1ccc2c(c1)OCO2` [LK62, 2-(benzo[1,3]dioxol-5-ylcarbamoyl)benzoic acid] were 3.36 µM and 0.145 µM.

`O=C(O)c1ccc(NC(=O)c2ccccc2C(=O)O)cc1Cl` [LK63, 4-(2-carboxybenzamido)-2-chlorobenzoic acid]: the EC50 in test [1] is 0.126 µM. In addition, the IC50 in test [2] is 0.0298 µM.

Consider `O=C(O)c1ccc(CNC(=O)c2ccccc2C(=O)O)cc1` [LK64], for which the EC50 in test [1] is 0.398 µM. For the same molecule, the IC50 in test [2] is 0.981 µM. Regarding `COC(=O)NCc1ccc(NC(=O)c2ccccc2C(=O)O)cc1` [PM11], in test [1], the “Activity (chondrogenic nodules formed in % of cells)” value is “** (chondrogenic nodules formed in at least 25% but less than 50% of cells)”. Turning to `O=C(O)c1ccccc1C(=O)Nc1ccc(-c2ncc[nH]2)cc1` [PM18], the “Activity (chondrogenic nodules formed in % of cells)” value in test [1] is recorded as “** (chondrogenic nodules formed in at least 25% but less than 50% of cells)”.

In the case of `CC(=O)c1ccc(NC(=O)c2ccccc2C(=O)O)cc1` [drawing 168], in test [2], the IC50 was over 10 µM.
